Measured values from patent US6958346B2, “4-heteroaryl-tetrahydroquinolines and their use as inhibitors of the cholesterin-ester transfer protein” (Bayer Aktiengesellschaft, priority 1997, dated 2005).

Assays:
[1] = target: T1, cholesterol ester transfer protein (CETP) (Homo sapiens, UniProt P11597); assay: CETP inhibition test (transfer of 3H-cholesterol ester from human HDL to biotinylated LDL, SPA); type: biochemical; conditions: CETP partially purified from human plasma; 37° C., 18 h; concentration at which transfer is reduced by half
T1 construct: CETP is obtained in partially purified form from human plasma by differential centrifugation and column chromatography; from tissue; host or cells: human plasma
T1 sequence (P11597 18-493): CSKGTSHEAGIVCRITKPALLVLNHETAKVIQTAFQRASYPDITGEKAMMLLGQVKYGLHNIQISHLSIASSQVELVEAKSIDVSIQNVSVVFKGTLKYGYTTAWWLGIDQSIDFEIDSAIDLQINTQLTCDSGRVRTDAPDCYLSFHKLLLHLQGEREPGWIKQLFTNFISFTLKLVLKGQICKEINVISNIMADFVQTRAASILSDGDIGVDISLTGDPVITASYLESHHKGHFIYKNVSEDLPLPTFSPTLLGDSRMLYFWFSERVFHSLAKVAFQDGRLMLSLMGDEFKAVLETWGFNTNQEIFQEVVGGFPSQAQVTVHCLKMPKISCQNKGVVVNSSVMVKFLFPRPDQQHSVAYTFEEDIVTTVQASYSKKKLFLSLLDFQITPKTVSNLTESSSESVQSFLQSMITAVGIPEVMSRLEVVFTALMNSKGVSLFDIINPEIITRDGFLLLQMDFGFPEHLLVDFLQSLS
Procedure: CETP is obtained in partially purified form from human plasma by differential centrifugation and column chromatography and used for the test. For this purpose, human plasma is adjusted to a density of 1.21 g per ml using NaBr and centrifuged at 50,000 rpm at 4° C. for 18 h. The bottom fraction (d>1.21 g/ml) is applied to a Sephadex®Phenyl-Sepharose 4B (Pharmacia) column, washed with 0.15 m NaCl/0.001 m TrisHCl pH 7.4 and subsequently eluted using dist. water. The CETP-active fractions are pooled, dialysed against 50 mM Na-acetate pH 4.5 and applied to a CM-Sepharose® (Pharmacia) column. Elution is subsequently carried out using a linear gradient (0-1 M NaCl). The pooled CETP fractions are dialysed against 10 mM TrisHCl pH 7.4 and subsequently purified further by chromatography over a Mono Q® column (Pharmacia).
50 ml of fresh human EDTA plasma are adjusted to a density of 1.12 using NaBr and centrifuged at 4° C. in a Ty 65 rotor at 50,000 rpm for 18 h. The upper phase is used to obtain cold LDL. […]
To test the CETP activity, the transfer of ^3H-cholesterol ester from human HD-lipoproteins to biotinylated LD-lipoproteins is measured.
The reaction is terminated by addition of Streptavidin-SPA® beads (Amersham) and the transferred radioactivity is directly determined in a liquid scintillation counter. […]

Question: With `CC1(C)CC(=O)c2c(nc(C3CCCC3)c(C(=O)c3ccc(C(F)(F)F)cc3)c2-c2ccsc2)C1` [Example 1, 2-Cyclopentyl-7,7-dimethyl-4-(3-thienyl)-3-(4-trifluoromethylbenzoyl)-5,6,7,8-tetrahydro-quinolin-5-one] as the molecule, how does the IC50 [1] read?
Answer: 10 nM

Question: With `CC1(C)CC(=O)c2c(nc(C3CCCC3)c(C(=O)c3ccc(C(F)(F)F)cc3)c2-c2ccncc2)C1` [Example 2] as the molecule, how does the melting point read?
Answer: 221 to 224 °C

Question: With `CC1(C)CC(=O)c2c(nc(C3CCCC3)c(C(=O)c3ccc(C(F)(F)F)cc3)c2C2CCCCC2)C1` [Example 3] as the molecule, how does the melting point read?
Answer: 185 to 186 °C
